Laboratory results taken from patent US6537527B1, “Skin lightening compositions” (Children's Hospital Medical Center, priority 1994, dated 2003).

Test: Stability under selective acid hydrolysis in pH 5 buffer
Format: physicochemical
Conditions: pH 5 buffer solution
Procedure: To a stirred suspension comprising the benzyl protected intermediate (1.0 equiv.), 5% Pd/C (0.07 equiv.) and methanol is added 55% hydrazine hydrate (˜20 equiv.). The reaction mixture is slowly heated and maintained at reflux under an inert atmosphere until TLC analysis indicates complete consumption of starting material. Reaction mixture is cooled to room temperature, filtered through celite to remove catalyst and volatiles removed in-vacuo. Residue is then subjected to low pressure column chromatography with 7:3 hexane:ethyl acetate as eluent. Composition and purity of isolated white solid as determined by ^1H and ^13C NMR is consistent with the brominated compound shown.

In the case of `Oc1ccc(O[C@H]2OCCC[C@@H]2Br)cc1` [Iii], the “stability to acid hydrolysis” value is reported as “stable under these conditions”.
